From ChEMBL document CHEMBL1201862, “PubChem BioAssay data set” (2004)
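Cells were grown in 96-well plates and exposed to each compound for 48 hours at five concentrations; endpoints were interpolated linearly between bracketing concentrations, or set to the highest concentration if not reached. GI50 = concentration required for 50% inhibition of growth.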 Calls of active or inactive are those of the source. Rule as the data show it: active = GI50 up to about 1.1 µM and inactive = higher.

Experiments:
Assay in all cases: NCI-60 cell line screen, 48 h
NCI-H460 = system: NCI-H460
EKVX = system: EKVX
SK-OV-3 = system: SK-OV-3
SNB-75 = system: SNB-75
OVCAR-4 = system: OVCAR-4
SF-268 = system: SF-268
SK-MEL-28 = system: SK-MEL-28
SK-MEL-5 = system: SK-MEL-5
NCI-H23 = system: NCI-H23
NCI-H226 = system: NCI-H226
MDA-MB-231 = system: MDA-MB-231
SF-295 = system: SF-295
OVCAR-8 = system: OVCAR-8
Malme-3M = system: Malme-3M
UACC-257 = system: UACC-257
HCC 2998 = system: HCC 2998
T47D = system: T47D
Hs-578T = system: Hs-578T
K562 = system: K562
HOP-92 = system: HOP-92

Measured: GI50

O=c1c2cc([N+](=O)[O-])cnc2sn1-c1ccc([N+](=O)[O-])cc1
inactive: NCI-H460 45.1 µM | EKVX 40.3 µM | SK-OV-3 35.5 µM | SNB-75 38.1 µM | OVCAR-4 27.7 µM | SF-268 27.1 µM | SK-MEL-28 82.4 µM | SK-MEL-5 99.5 µM | NCI-H23 31.2 µM | NCI-H226 74.6 µM | MDA-MB-231 19.9 µM | SF-295 38.2 µM | OVCAR-8 42.5 µM | Malme-3M 14.2 µM | UACC-257 > 100 µM | HCC 2998 43.8 µM | T47D 14.7 µM | Hs-578T 29.2 µM

O=C(N/N=C/C=C/c1ccc([N+](=O)[O-])o1)c1ccc(C(=O)N/N=C/C=C/c2ccc([N+](=O)[O-])o2)cc1
inactive: NCI-H460 > 40.8 µM | EKVX > 100 µM | SK-OV-3 > 100 µM | SNB-75 > 100 µM | OVCAR-4 > 72.3 µM | SF-268 15.8 µM | SK-MEL-28 57 µM | K562 33.1 µM | SK-MEL-5 22.4 µM | NCI-H23 49.8 µM | NCI-H226 > 100 µM | SF-295 > 85.5 µM | OVCAR-8 13.2 µM | Malme-3M 12.7 µM | HOP-92 > 62.8 µM | HCC 2998 12.9 µM | T47D > 40.1 µM | Hs-578T > 100 µM

C=C=C(C)[Si](C)(C)C
inactive: NCI-H460 > 100 µM | SK-OV-3 > 100 µM | SNB-75 96.2 µM | OVCAR-4 > 100 µM | SF-268 > 100 µM | SK-MEL-28 > 100 µM | K562 > 100 µM | SK-MEL-5 > 100 µM | NCI-H23 > 100 µM | NCI-H226 > 100 µM | MDA-MB-231 > 100 µM | SF-295 > 100 µM | OVCAR-8 > 100 µM | Malme-3M > 100 µM | UACC-257 > 100 µM | HCC 2998 > 100 µM | T47D > 100 µM | Hs-578T > 100 µM

CN(C)CCNC(=O)c1cccc(CO)c1[N+](=O)[O-]
inactive: NCI-H460 > 100 µM | SK-OV-3 > 100 µM | SNB-75 75 µM | SF-268 > 100 µM | SK-MEL-28 > 100 µM | K562 > 100 µM | SK-MEL-5 > 100 µM | NCI-H23 > 100 µM | NCI-H226 > 100 µM | MDA-MB-231 > 100 µM | SF-295 > 100 µM | OVCAR-8 > 100 µM | Malme-3M > 100 µM | UACC-257 > 100 µM | HCC 2998 > 100 µM | T47D > 100 µM | Hs-578T > 100 µM

CS/C(Nc1ccccc1)=C1\C(=O)N(c2ccccc2)N=C1C
inactive: NCI-H460 > 100 µM | EKVX > 100 µM | SK-OV-3 > 100 µM | SNB-75 > 100 µM | OVCAR-4 > 100 µM | SF-268 > 100 µM | SK-MEL-28 > 100 µM | K562 > 100 µM | SK-MEL-5 > 100 µM | NCI-H23 > 100 µM | NCI-H226 > 100 µM | MDA-MB-231 > 100 µM | OVCAR-8 > 100 µM | Malme-3M > 100 µM | UACC-257 > 100 µM | HCC 2998 > 100 µM | T47D > 100 µM | Hs-578T > 100 µM

CC(=O)OC1CC2CCC1(C)C2(C)C (stereo not given)
inactive: NCI-H460 > 100 µM | SK-OV-3 > 100 µM | SNB-75 > 100 µM | OVCAR-4 > 100 µM | SF-268 > 100 µM | SK-MEL-28 > 100 µM | K562 > 100 µM | NCI-H23 > 100 µM | NCI-H226 > 100 µM | MDA-MB-231 > 100 µM | SF-295 > 100 µM | OVCAR-8 > 100 µM | Malme-3M > 100 µM | UACC-257 > 100 µM | HCC 2998 > 100 µM | T47D > 100 µM | Hs-578T > 100 µM

CN(/N=C/c1cccs1)c1ccc([N+](=O)[O-])cc1[N+](=O)[O-]
inactive: NCI-H460 > 100 µM | EKVX > 100 µM | SK-OV-3 > 100 µM | SNB-75 77.8 µM | OVCAR-4 > 100 µM | SF-268 > 100 µM | SK-MEL-28 > 100 µM | K562 > 100 µM | SK-MEL-5 > 100 µM | NCI-H23 > 100 µM | MDA-MB-231 > 100 µM | SF-295 > 100 µM | OVCAR-8 > 100 µM | UACC-257 > 100 µM | HCC 2998 > 100 µM | T47D > 100 µM | Hs-578T > 100 µM

COC(C)(C)[C@@H]1CCCN1C1=C(C)C(=O)OC1
inactive: NCI-H460 > 100 µM | SK-OV-3 > 100 µM | SNB-75 > 10 µM | SF-268 > 100 µM | K562 > 100 µM | SK-MEL-5 > 100 µM | NCI-H23 > 100 µM | MDA-MB-231 > 100 µM | SF-295 > 100 µM | Malme-3M > 100 µM | HCC 2998 > 100 µM | T47D > 100 µM | Hs-578T > 100 µM

CC(=O)OCC(OC(C)=O)C(OC(C)=O)C(OC(C)=O)C(C=NN(C(C)=O)S(=O)(=O)c1ccc(/C=C2\NC(=O)N(C)C2=O)cc1)OC(C)=O (stereo not given)
inactive: NCI-H460 22.1 µM | EKVX 43 µM | SK-OV-3 48.5 µM | SNB-75 33.7 µM | OVCAR-4 53.5 µM | SF-268 30.1 µM | K562 21.4 µM | SK-MEL-5 30.1 µM | NCI-H23 34.5 µM | NCI-H226 38.7 µM | MDA-MB-231 36.1 µM | SF-295 95.9 µM | OVCAR-8 25.6 µM | Malme-3M 25.5 µM | UACC-257 43.9 µM | HCC 2998 30.5 µM | T47D 27.1 µM | Hs-578T 32.9 µM

O=c1c2ccccc2nc(N/N=C/c2ccc([N+](=O)[O-])cc2)n1-c1ccccc1
inactive: NCI-H460 > 100 µM | EKVX 20 µM | SK-OV-3 18.7 µM | SNB-75 7.93 µM | OVCAR-4 6.1 µM | SF-268 12.1 µM | SK-MEL-28 10.7 µM | K562 52.1 µM | SK-MEL-5 64.3 µM | NCI-H23 61.1 µM | NCI-H226 > 100 µM | MDA-MB-231 11.7 µM | SF-295 4.35 µM | OVCAR-8 37.8 µM | Malme-3M 35.9 µM | UACC-257 15.6 µM | T47D 9.59 µM | Hs-578T 6.35 µM

N#Cc1cnn2cc[nH]c12
inactive: NCI-H460 > 100 µM | EKVX > 100 µM | SK-OV-3 > 100 µM | SNB-75 > 100 µM | OVCAR-4 > 100 µM | SF-268 > 100 µM | SK-MEL-28 > 100 µM | K562 > 100 µM | SK-MEL-5 > 100 µM | NCI-H23 > 100 µM | NCI-H226 > 100 µM | MDA-MB-231 > 100 µM | SF-295 > 100 µM | OVCAR-8 > 100 µM | UACC-257 > 100 µM | HCC 2998 > 100 µM | T47D > 100 µM | Hs-578T > 100 µM
